Source: patent publication US12050220B2, “Cell labeling agent and cell labeling kit” (University of Miyazaki, priority 2018, dated 2024)

Columns and labels:
[1] = tested on: HeLa cells; test: Fluorescence imaging of cells (metabolic labeling, FAM-tetrazine staining, confocal microscopy); assay type: cell-based
Protocol: BCN-ManNAc was added to the medium containing 1×10^5 HeLa cells and cultured for 72 hours. The medium used was DMEM (Dulbecco's Modified Eagle's Medium) containing 10% FBS (fetal bovine serum). The final concentrations of BCN-ManNAc added to the medium were 0, 2.5, 5, 10, 20, and 25 μM. After incubation, the medium was removed and the cells were washed three times with PBS. 3.7% paraformaldehyde was added and the cells were fixed for 20 min at room temperature. A final concentration of 1 μM FAM-tetrazine was added to the plate containing the fixed cells, and the cells were incubated for 20 min at room temperature. Fluorescence measurement was performed using a confocal microscopy (Leica TCS SP8, Leica Microsystems).

[2] = Confirmation of the reactivity of BCN-ManNAc in vitro (click reaction with FAM-tetrazine, fluorescence spectra); details: BCN-ManNAc 200 μM, FAM-tetrazine 1 μM, PBS; time-varying measurement up to 4000 s
Protocol: 2.0 mg of BCN-ManNAc was dissolved in 190 μL of DMSO and 20 mM of BCN-ManNAc solution was prepared. 1.0 mg of FAM-tetrazine was dissolved in 180 μL of DMSO and […] of FAM-tetrazine solution was prepared. 89 μL of phosphate-buffered saline (PBS) was prepared in a microtube, to which 1 μL of BCN-ManNAc solution and 10 μL of FAM-tetrazine solution were added, and the mixture was stirred well in a vortex mixer. The final concentrations of BCN-ManNAc and FAM-tetrazine in the mixture are 200 μM and 1 μM, respectively.
100 μL of the mixture was reacted at 37° C. for 1.5 hours. As a control, 100 μL of the sample of BCN-ManNAc 200 μM only was prepared. The fluorescence spectra of the mixture and control were measured using a spectrophotometer (JASCO FP-8200) (λex=492 nm, λem=517 nm). To evaluate the time dependence of the reaction of BCN-ManNAc and FAM-tetrazine, the fluorescence spectra of 100 μL of the mixture were measured up to 4000 s in the time-varying measurement mode.

Substance: acetylated BCN-modified mannosamine [BCN-ManNAc]
- fluorescence of FAM in cells ([1]; HeLa cells cultured 72 hours with 0, 2.5, 5, 10, 20, 25 μM, fixed, 1 μM FAM-tetrazine 20 min): increased in a concentration-dependent manner
- fluorescence images of cells exposed to FAM-tetrazine (+) ([1]; HeLa cells cultured in medium containing 25 μM, with FAM-tetrazine (+) vs without (−)): observed by fluorescence
- time at which fluorescence intensity almost reached its maximum [2]: about 1800 s
